Source: PubChem BioAssay AID517 (Columbia University Molecular Screening Center, 2006)
Calls of active or inactive are those of the source.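 Rule for the calls: active = activity score of 15 or more, from fitted potency or summed per-dose inhibition z-scores, roughly IC50 of 5 µM; inactive = the rest.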

System: HUVEC TNFalpha-induced E-selectin immunofluorescence imaging
Assay: E-selectin expression inhibitors, dose response, confirmation, imaging, HUVEC, immunofluorescence, TNFalpha stimulation (AID 517)

| Compound | IC50 |
| --- | --- |
| Cc1nc2ccccc2nc1OCC(=O)Nc1cc(C(F)(F)F)ccc1N1CCOCC1 | > 8 µM (inactive) |
| CC(C)C(C(=O)Nc1ccc2c(c1)OCO2)N1C(=O)c2ccccc2C1=O (stereo unspecified) | > 8 µM (inactive) |
| CN(C(=O)c1ccc2c(=O)n3c(nc2c1)CCCCC3)c1ccccc1 | > 8 µM (inactive) |
| Fc1cc(F)c(F)c(SCCc2ccncc2)c1F | > 8 µM (inactive) |
| Cc1cc2c(cc1C)-c1nnnn1C(C)(C)C2 | > 8 µM (inactive) |
| CC1(C)CC(=O)C(C=NC(CCC(N)=O)C(=O)O)=C(O)C1 (stereo unspecified) | > 8 µM (inactive) |
| N#Cc1c(NCc2ccccc2)ccnc1NCc1cccnc1 | > 8 µM (inactive) |
| CCN(CC)CCCNC(=O)c1cn(C)c2ccc(S(=O)(=O)N(C)C)cc2c1=O | > 8 µM (inactive) |
| COc1ccc(CCNC(=O)C2=COCCO2)cc1 | > 8 µM (inactive) |
| CCCCSc1nc(O)c(C2OC(=O)c3c2ccc(OC)c3OC)c(=O)n1C (stereo unspecified) | > 8 µM (inactive) |
| C=CS(=O)(=O)c1ccc(Oc2ccc(S(=O)(=O)C=C)cc2)cc1 | 0.55 µM |
| COc1ccc(-c2nnc(-c3cccs3)o2)cc1OC | > 8 µM (inactive) |
| COc1cccc2c1C(=O)c1c(O)c3c(c(O)c1C2=O)C[C@@](O)(C(=O)CO)C[C@@H]3O[C@H]1C[C@H](N)[C@H](O)[C@H](C)O1 | 3.2 µM |
| CN(Cc1ccccc1)Cc1nc2c([nH]1)c(=O)[nH]c(=O)n2C | > 8 µM (inactive) |
| CC(=O)Nc1sc2c(c1CN1CCN(c3ccccn3)CC1)CCCC2 | > 8 µM (inactive) |
| CC1CCN(C(=O)CSc2nc3ccccc3[nH]2)CC1 | > 8 µM (inactive) |
| COc1ccc(OC)c2[nH]c(=O)c(CCNC(=O)CC(C)C)cc12 | > 8 µM (inactive) |
| Cc1cc(NC(=O)CS(=O)(=O)c2cn(Cc3ccccc3Cl)c3ccccc23)no1 | > 8 µM (inactive) |
| CC1CN(C(=O)CSc2nnc(-c3ccncc3)n2-c2ccccc2)CC(C)O1 (stereo unspecified) | > 8 µM (inactive) |
| CCn1c(=N)n(CC(=O)c2ccco2)c2ccccc21 | > 8 µM (inactive) |
| COc1ccc2c(C)nc(Nc3nc(C)cc(C)n3)nc2c1 | > 8 µM (inactive) |
| N#CCCn1cnc2ccccc21 | > 8 µM (inactive) |
| COc1ccc(CCN2C(=O)CC(N3CCN(S(=O)(=O)c4ccccc4)CC3)C2=O)cc1 (stereo unspecified) | > 8 µM (inactive) |

| Compound | IC50 |
| --- | --- |
| COc1ccc(CCn2c(O)c(C=NCc3cccnc3)c(=O)[nH]c2=O)cc1OC | > 8 µM (inactive) |
| Cn1cccc1Cc1nnc(SCC(=O)N2CCOCC2)n1-c1ccc(F)cc1 | > 8 µM (inactive) |
| CN(CCc1ccccn1)c1ncnc2[nH]ncc12 | > 8 µM (inactive) |
| C=CCOC(=O)COc1cc(C)cc2oc(=O)c3c(c12)CCC3 | > 8 µM (inactive) |
| Nc1c2c(nc3ccccc13)N(c1ccccc1)CC2 | > 8 µM (inactive) |
| CC1CCN(CCC(=O)Nc2ccc(Br)cc2)CC1 | > 8 µM (inactive) |
| COc1ccc(C(=O)CSc2nnc(C3CCCCC3)n2N)c(OC)c1 | > 8 µM (inactive) |
| Cc1cnc(NC(=O)CSc2nc3ccccc3c(=O)[nH]2)s1 | > 8 µM (inactive) |
| COc1ccccc1OCC(O)COC(N)=O (stereo unspecified) | > 8 µM (inactive) |
| O=C(O)CC1CCCC(c2ccccc2)C1=O (stereo unspecified) | > 8 µM (inactive) |
| O=C(OCc1ccc2c(c1)OCO2)c1ccc(S(=O)(=O)N2CCCCC2)cc1 | > 8 µM (inactive) |
| Cc1cc2oc(=O)cc(CN3CCCCC3)c2cc1C(C)C | > 8 µM (inactive) |
| O=C1CC(c2ccc(S(=O)(=O)N3CCN(c4ccccc4)CC3)cc2)CN1 (stereo unspecified) | > 8 µM (inactive) |
| O=C(CSc1ccc(-c2ccccc2)nn1)N1CCOCC1 | > 8 µM (inactive) |
| COCCn1c(=O)[nH]c2cc(C(=O)NCc3cccnc3)ccc2c1=O | > 8 µM (inactive) |
| Cc1nnc(SCCn2c(N3CC(C)CC(C)C3)nc3c2c(=O)n(C)c(=O)n3C)s1 (stereo unspecified) | > 8 µM (inactive) |
| COC(=O)C1=C(C)NC(C)=C(C(=O)OC)C1C(=O)OC1CCCCC1=O (stereo unspecified) | > 8 µM (inactive) |
| FC(F)Oc1cccc2cccnc12 | > 8 µM (inactive) |
| Cc1ccc(N=C2NC(=O)CS2)c(C)c1 | > 8 µM (inactive) |
| CC[C@H]1CN2CCc3cc(OC)c(OC)cc3[C@@H]2C[C@@H]1C[C@H]1NCCc2cc(OC)c(OC)cc21 | 0.08 µM |
| O=C(COn1nnc2ccc(C(F)(F)F)cc21)Nc1nnc(-c2ccccc2)o1 | > 8 µM (inactive) |
| COc1ccc(OC(=O)c2cc3ccccc3o2)cc1 | > 8 µM (inactive) |
| COCCNC(=O)C1CCCN(c2ncccn2)C1 (stereo unspecified) | > 8 µM (inactive) |

| Compound | IC50 |
| --- | --- |
| CCN(CC)S(=O)(=O)c1ccc2[nH]cc(C(=O)NCCC3=CCCCC3)c(=O)c2c1 | > 8 µM (inactive) |
| O=C1COc2ccc(C(=O)NCc3ccco3)cc2N1 | > 8 µM (inactive) |
| O=C(Nc1cccc(F)c1)c1ccc2c(c1)OCO2 | > 8 µM (inactive) |
| Cc1ccc(SC(C)c2nc(-c3ccccc3)no2)cc1 (stereo unspecified) | > 8 µM (inactive) |
| Cc1oc(-c2ccccc2Cl)nc1CSCC(=O)N1CCCC1 | > 8 µM (inactive) |
| COc1ccc(NC(=O)CSc2nnc(-c3ccccc3C)n2C)cc1 | > 8 µM (inactive) |
| O=C(c1ccc2c3c(cccc13)C(=O)N(O)C2=O)N1CCCCC1 | > 8 µM (inactive) |
| C=CCNc1nc(C)nc(OC)n1 | > 8 µM (inactive) |
| O=C(Nc1ccc(SC(F)F)cc1)c1ccc2nccnc2c1 | > 8 µM (inactive) |
| Cc1c(NC2=NC3(CCCCC3)Cc3ccccc32)c(=O)n(-c2ccccc2)n1C | > 8 µM (inactive) |
| O=C(Cc1cccs1)NCc1ccc(F)cc1 | > 8 µM (inactive) |
| CCOC(=O)C1CCCN(C(=O)c2sc3nc(-c4ccccc4)cn3c2C)C1 (stereo unspecified) | > 8 µM (inactive) |
| C[C@H]1CCC/C=C/C2C[C@H](O)CC2[C@H](O)/C=C/C(=O)O1 (stereo partly specified) | < 0.01 µM |
| C=CCn1c(-c2ccccc2)n[nH]c1=S | > 8 µM (inactive) |
| O=C(NCCN1CCOCC1)c1ccc(=O)oc1 | > 8 µM (inactive) |
| O=S1(=O)C=C(Sc2nc3ccccc3s2)c2ccccc21 | 1.85 µM |
| FC(F)Oc1ccc(-c2csc(Cc3nnc4n3CCCCC4)n2)cc1 | > 8 µM (inactive) |
| OC1C[N+]2(CCCCC2)C1 | > 8 µM (inactive) |
| CC1=CC=CC2=NC(=O)CC(C)(C(=O)N(CC(=O)NC(C)C)C3CCCC3)N12 (stereo unspecified) | > 8 µM (inactive) |
| CC(C)Cn1c(=O)c(C(=O)Nc2ccccc2S(N)(=O)=O)c(O)c2ccccc21 | > 8 µM (inactive) |
| O=c1cc(NCc2ccccc2)nc2n1CCCS2 | > 8 µM (inactive) |
| Cc1ccc(Nc2nc(N)nc(CN3CCCCCC3)n2)cc1 | > 8 µM (inactive) |
| COc1ccc(Cc2nc3ccc(S(N)(=O)=O)cc3[nH]2)cc1OC | > 8 µM (inactive) |

| Compound | IC50 |
| --- | --- |
| Cc1cc(NC(=O)COC(=O)c2cccc(S(=O)(=O)N3CCOCC3)c2)no1 | > 8 µM (inactive) |
| O=C1c2ccccc2S(=O)(=O)N1Cc1nnc(-c2ccccc2Br)o1 | > 8 µM (inactive) |
| O=C(Nc1ccc2[nH]c3c(c2c1)CCCC3)c1ccco1 | > 8 µM (inactive) |
| Cc1ccc(C)c(-n2c(Cc3cc(=O)[nH]c(=O)[nH]3)nnc2SCC(=O)NCc2ccco2)c1 | > 8 µM (inactive) |
| O=c1c2ccccc2nc(SCc2cn3ccsc3n2)n1-c1ccc(F)cc1 | > 8 µM (inactive) |
| CC1Oc2ccccc2N(CC(=O)N(Cc2ccccc2)Cc2ccccn2)C1=O (stereo unspecified) | > 8 µM (inactive) |
| COc1ccccc1-c1c(C)nn2c(C)c(C(C)=O)cnc12 | > 8 µM (inactive) |
| Cc1ccc2[nH]c(=O)c(CN(CCc3ccccc3)Cc3nnnn3CC3CCCO3)cc2c1 (stereo unspecified) | > 8 µM (inactive) |
| COC(=O)CCC(=O)Nc1cccc(Br)c1 | > 8 µM (inactive) |
| Cc1ccc(O)c(C(=O)c2cc(C#N)c(=O)n(CC3CCCO3)c2)c1 (stereo unspecified) | > 8 µM (inactive) |
| CCN(CC(=O)NC(=O)NCc1ccco1)Cc1nc2ccccc2c(=O)[nH]1 | > 8 µM (inactive) |
| COc1cccc2c1C(=O)c1c(O)c3c(c(O)c1C2=O)C[C@@](O)(C(C)=O)C[C@@H]3O[C@H]1C[C@H](N)[C@H](O)[C@H](C)O1 | 0.63 µM |
| COc1ccc(Cl)cc1NC(=O)CSc1nncn1-c1cccnc1 | > 8 µM (inactive) |
| CCOC(=O)C1CCCN(C(=O)c2cc3c(=O)n4cccc(C)c4nc3n2C)C1 (stereo unspecified) | > 8 µM (inactive) |
| Cc1c(O)c(CN2CCCC2)cc2c1oc(=O)c1ccccc12 | > 8 µM (inactive) |
| CCn1c(=O)n(CC(=O)N(C)Cc2ccccc2)c(=O)c2ccccc21 | > 8 µM (inactive) |
| O=C(NCCCN1CCCC1=O)c1cncc(Br)c1 | > 8 µM (inactive) |
| Cc1cc(C)n(C2=NS(=O)(=O)c3ccccc32)n1 | > 8 µM (inactive) |
| Cc1cc(N2C(=O)C3C4C=CC(C4)C3C2=O)ccc1Br (stereo unspecified) | > 8 µM (inactive) |
| O=C1CC(N2CCN(c3cccc(C(F)(F)F)c3)CC2)C(=O)N1c1ccccc1 (stereo unspecified) | > 8 µM (inactive) |
| O=C(O)C1C2CCC(C2)C1C(=O)NCCCn1ccnc1 (stereo unspecified) | > 8 µM (inactive) |
| CCOC(=O)c1sc(NC(=O)CSc2n[nH]c(-c3ccccc3)n2)c(C#N)c1C | > 8 µM (inactive) |
